Here are results for 23 compounds from ChEMBL document CHEMBL6083253, “Chemical synthesis and enzymatic late-stage diversification of novel pantothenate analogues with antiplasmodial activity” (Eur J Med Chem, 2024).

Data set [1] relates to Plasmodium falciparum. Put plainly: Antiplasmodial activity against Plasmodium falciparum infected in human Erythrocyte measured after 96 hrs in presence of chloroquine and 1 uM of pantothenate by SYBR green fluorescence dye based microplate reader analysis. Format: functional, organism-based.
Data set [2] can be described thus: Cytotoxicity against HFF cells assessed as inhibition of cell proliferation at 10 uM incubated for 96 hrs by IncuCyte live-cell analysis. Format: toxicity, cell-based. Particulars: human.
For data set [3], the system named is Priestia megaterium. The data set can be described thus: Substrate activity at full length C-terminal his-tagged wild type Bacillus megaterium […] BM3 preincubated for 5 min in presence of NADP+ followed by compound addition by LC-MS analysis.
Data set [4] concerns Priestia megaterium. Put plainly: Substrate activity at full length C-terminal his-tagged Bacillus megaterium […] BM3 A82F/F87V double mutant preincubated for 5 min in presence of NADP+ followed by compound addition by LC-MS analysis.
The test system of data set [5] is Plasmodium falciparum. The data set can be described thus: Antiplasmodial activity against Plasmodium falciparum infected in human Erythrocyte measured after 96 hrs in presence of chloroquine and 100 uM of pantothenate by SYBR green fluorescence dye based microplate reader analysis. Format: functional, organism-based.
Data set [6] deals with Priestia megaterium. Put plainly: Substrate activity at full length C-terminal his-tagged Bacillus megaterium […] BM3 A82F/F87V double mutant assessed as conversion rate by UV-HPLC analysis.
The nature of data set [7]: Cytotoxicity against HFF cells assessed as inhibition of cell proliferation at 200 uM incubated for 96 hrs in presence of 16.8 uM of pantothenate by IncuCyte live-cell analysis. The format is toxicity, cell-based. Particulars: human.
A short description of data set [8]: Binding affinity to full length C-terminal his-tagged Bacillus megaterium […] BM3 A82F/F87V double mutant assessed as dissociation constant by Morrison equation based analysis. Further details: species or system Priestia megaterium.
The test system of data set [9] is Plasmodium falciparum. The data set can be described thus: Antiplasmodial activity against intraerythrocytic stage of Plasmodium falciparum 3D7 assessed as inhibition of parasite proliferation in presence of pantetheinase. Format: functional, organism-based.
For data set [10], the system named is Plasmodium falciparum. The data set can be described thus: Antiplasmodial activity against intraerythrocytic stage of Plasmodium falciparum 3D7 assessed as inhibition of parasite proliferation. Format: functional, organism-based.
Data set [11] can be described thus: Binding affinity to full length C-terminal his-tagged Bacillus megaterium […] BM3 A82F/F87V double mutant assessed as dissociation constant by Michaelis-Menten equation based analysis. Further details: species or system Priestia megaterium.
Data set [12] deals with Priestia megaterium. The data set can be described thus: Substrate activity at wild type full length C-terminal his-tagged Bacillus megaterium […] BM3 assessed as conversion rate by UV-HPLC analysis.

The structures appear in SMILES notation. Calls of active or inactive are those of the source. The calls are words filed in the database; no cut-off is given here.

In general, IC50 refers to the point on the concentration scale where inhibition reaches its midpoint. As to `CC(C)C(O)Cc1cc(CNC(=O)[C@H](O)C(C)(C)CO)no1` (some centres undefined), in the data set on Plasmodium falciparum [1], the IC50 was 7.3 µM.

One may read the inhibition as the drop in the measured response relative to a control, in per cent. Turning to `C[C@@H]1C[C@@H]([C@H](O)CC2CC(=O)NC(=O)C2)C(=O)[C@@H](C)C1` [CYCLOHEXIMIDE], the inhibition at 96 h, 10 µM in data set [2] was 100%.

Usually Kd stands for the concentration at which binding is half-saturated. Consider `CC(C)Cc1cc(CNC(=O)[C@H](O)C(C)(C)CO)no1`, for which the result with Priestia megaterium [3] and in the data set with Priestia megaterium [4] was Active. Also, the figures for the IC50 with Plasmodium falciparum [1] and in the data set on Plasmodium falciparum [5] were 0.47 µM and over 6.3 µM, respectively. Moreover, the Activity in the data set on Priestia megaterium [6] was 37.5%. Also, the inhibition at 96 h, 200 µM in data set [7] was 100%. Further, in [8], the Kd came to 3000 nM.

Regarding `CCCCCc1nnc(CNC(=O)[C@H](O)C(C)(C)CO)o1`, the result in the data set with Priestia megaterium [3] and with Priestia megaterium [4] was inactive.

In the case of `CCCCCc1noc(CNC(=O)[C@H](O)C(C)(C)CO)n1`, the outcome in the data set on Priestia megaterium [3] and in the data set on Priestia megaterium [4] was Active. For the same compound, in the data set with Priestia megaterium [6], the Activity came out at 32.9%.

As for `CC[S+]([O-])Cc1cc(CNC(=O)[C@H](O)C(C)(C)CO)no1` (some centres undefined), the IC50 in the data set on Plasmodium falciparum [1] amounted to 153 µM.

For `CC(C)CCCc1cc(CNC(=O)[C@H](O)C(C)(C)CO)no1`, the outcome in the data set with Priestia megaterium [3], with Priestia megaterium [4] and in the data set on Priestia megaterium [6] was Active. Moreover, the IC50 in the data set with Plasmodium falciparum [1] was 0.35 µM; in the data set with Plasmodium falciparum [5], over 3.1 µM. The inhibition at 96 h, 200 µM in data set [7] was 102%. Besides, the dissociation constant (Kd) in [8] came out at 3700 nM.

`CCCCCc1nnc(CNC(=O)[C@H](O)C(C)(C)CO)[nH]1`: the outcome in the data set on Priestia megaterium [3] and with Priestia megaterium [4] was inactive.

As to `CC(C)(O)CCCc1cc(CNC(=O)[C@H](O)C(C)(C)CO)no1`, in the data set on Plasmodium falciparum [1], the IC50 stood at 55 µM.

On to `CCC(C)c1cc(CNC(=O)[C@H](O)C(C)(C)CO)no1` (some centres undefined), for which the outcome with Priestia megaterium [3] and in the data set with Priestia megaterium [4] was inactive. In the data set on Plasmodium falciparum [1], the IC50 was found to be 10 µM.

Consider `CC(C)C(O)CCc1cc(CNC(=O)[C@H](O)C(C)(C)CO)no1` (some centres undefined), for which the values for the half-maximal inhibitory concentration (IC50) in the data set on Plasmodium falciparum [1] and in the data set with Plasmodium falciparum [5] were 3.9 µM and over 50 µM, respectively. For the same compound, the inhibition at 96 h, 200 µM in data set [7] stood at 101%.

As to `CC(C)(O)CCc1cc(CNC(=O)[C@H](O)C(C)(C)CO)no1`, in the data set with Plasmodium falciparum [1], the IC50 came out at 29 µM.

As to `CC(C)C(O)c1cc(CNC(=O)[C@H](O)C(C)(C)CO)no1` (some centres undefined), the IC50 in the data set with Plasmodium falciparum [1] came out at 80 µM.

Turning to `CCCCc1cc(CNC(=O)[C@H](O)C(C)(C)CO)no1`, in the data set on Plasmodium falciparum [9], the IC50 is 72 nM.

On to `CCCCCNC(=O)CCNC(=O)[C@H](O)C(C)(C)CO`, for which the result with Priestia megaterium [3] and with Priestia megaterium [4] was inactive.

In the case of `CCCCCn1cc(CNC(=O)[C@H](O)C(C)(C)CO)nn1`, in the data set on Plasmodium falciparum [9], the IC50 was found to be 56 nM.

On to `CC(C)(CO)[C@@H](O)C(=O)NCc1cn(CCCc2ccccc2)nn1`, for which the outcome in the data set with Priestia megaterium [3] and with Priestia megaterium [4] was Active. Moreover, the IC50 in the data set with Plasmodium falciparum [1] is 16 µM; with Plasmodium falciparum [10] it was 25 µM. In addition, the Activity in the data set on Priestia megaterium [6] is 32.3%. In [11], the Kd turned out to be 10 µM.

As to `CC(C)(CO)[C@@H](O)C(=O)NCc1cn(CC(O)Cc2ccccc2)nn1` (some centres undefined), the IC50 with Plasmodium falciparum [1] is over 200 µM.

Consider `CC(C)(C)Cc1cc(CNC(=O)[C@H](O)C(C)(C)CO)no1`, for which, in the data set with Priestia megaterium [3], the outcome was Active. The IC50 in the data set with Plasmodium falciparum [1] was 4 µM; in the data set with Plasmodium falciparum [5] it was over 50 µM. Also, the result with Priestia megaterium [4] was inactive. In data set [7], the inhibition at 96 h, 200 µM is 102%.

`CC(C)CCc1cc(CNC(=O)[C@H](O)C(C)(C)CO)no1`: the outcome in the data set on Priestia megaterium [3] and in the data set on Priestia megaterium [4] was Active. Also, the IC50 in the data set with Plasmodium falciparum [1] is 0.22 µM; in the data set on Plasmodium falciparum [5], over 3.1 µM. Also, in the data set with Priestia megaterium [12], the Activity worked out at 85.6%. Besides, the inhibition at 96 h, 200 µM in data set [7] was 100%.

As for `CCCCCCn1cc(CNC(=O)[C@H](O)C(C)(C)CO)nn1`, the IC50 with Plasmodium falciparum [9] was determined as 55 nM.

For `CCCCCc1cc(CNC(=O)[C@H](O)C(C)(C)CO)no1`, in the data set on Plasmodium falciparum [9], the IC50 amounted to 160 nM.

Turning to `CCSCc1cc(CNC(=O)[C@H](O)C(C)(C)CO)no1`, the result with Priestia megaterium [3], in the data set with Priestia megaterium [4] and in the data set with Priestia megaterium [6] was Active. The IC50 is 0.13 µM with Plasmodium falciparum [1] and over 1.6 µM in the data set with Plasmodium falciparum [5]. Further, the inhibition at 96 h, 200 µM in [7] amounted to 100%. Further, the Kd in data set [8] came to 900 nM.
